Experimental data published in US20140199714A1, “METHOD FOR DETECTING CANCER CELLS METASTASIZING INTO SENTINEL LYMPH NODE” (SHINSHU UNIVERSITY, priority 2008, published 2014).

How the values were obtained:
[1] = test system: attachment of carcinoma cells to human LECs; assay: In vitro human LEC attachment assay (ATP or MDA-MB-231 supernatant stimulation); assay type: cell-based; conditions: 48 hrs. stimulation (10^−7M ATP or MDA-MB-231 supernatant) vs DMEM/F12 Ham negative control; p<0.01; n=5
Procedure: The human LECs were plated to form a monolayer on type I collagen-coated 35 mm plates and incubated to confluence at 37° C. in 5% O2, 5% CO2, and 90% N2. The LECs were kept in serum-starved medium of EBM-2 with 3% FBS. Selected plates were treated with 10^−7M ATP or the supernatant of culture medium of MDA-MB-231 cells for 48 hrs. In some experiments, 10^−6M suramin was simultaneously added to the plates during 48 hrs. treatment with 10^−7M ATP or the culture medium supernatant of MDA-MB-231 cells.
In some experiments, the plates were also treated with anti-human-ICAM-1 antibody (available from R&D Systems, US) for 30 min after 48 hrs. treatment with the culture medium supernatant of MDA-MB-231 or 10^−7M ATP. Breast carcinoma cells stained with PKH26 fluorescent dye (available from SIGMA, US) were then plated at 5×10^4 cells per plate and incubated for 30 min. at 37° C. Unbound cells were removed by aspiration and the plates washed with DMEM/F12 three times. Attachment was quantitated by counting cells under ×100 magnification using a microscope (available from Leica, Switzerland).

[2] = test system: ICAM-1 on human LECs; assay: Immunohistochemical expression of ICAM-1 on cultured human LECs; assay type: cell-based
[3] = test system: prostate cancer cells; conditions: via P2 receptors; cited from earlier work
[4] = test system: E-selectin on human LECs; assay: Immunohistochemical expression of E-selectin on cultured human LECs; assay type: cell-based; conditions: 18 hrs.-stimulation with 10 ng/mL TNF-α or 100 ng/mL LPS
Procedure: (§1) Using an indirect immunohistochemical technique, the inventors examined the effects of the supernatants of culture medium of two kinds of carcinoma cells, MDA-MB-231 and MCF-7, on the expression of adhesion molecules such as E-selectin, P-selectin, vascular cell adhesion molecule (VCAM)-1, and intercellular adhesion molecule (ICAM)-1 on the human LECs. The carcinoma cells were plated in DMEM/F12 with 10% FBS, which was replaced the following day with DMEM/F12 with 3% FBS, and then collected after overnight culture. The collected solution was centrifuged at 2,000 rpm for 5 min. at 4° C. To examine the effects of the supernatants on the expression of the adhesion molecules on the human LECs, 1 mL of each collected solution was added to starvation culture medium, EBM-2 with 3% FBS of the human LECs, and then stimulated for 48 hrs. on the cells. In some experiments, the supernatant solutions at different concentrations (1/100 or 1/10,000 dilution) were constructed with appropriate volumes of DMEM/F12 with 3% FBS.
(§2) Indirect immunohistochemical studies were performed on the cultured LECs seeded or glass slides coated with type I collagen, and then the cells were fixed with 3.3% formalin in phosphate-buffered saline solution (PBS), for 20 min. at room temperature. The cells were washed three times with PBS, and then incubated overnight at 4° C. with primary polyclonal human antisera to E-selectin/CD62E (dilution 10 μg/mL, available from R&D Systems, US), P-selectin/CD62P (dilution 10 μg/mL, available from R&D Systems, US), VCAM-1/CD106 (dilution 10 μg/mL, available from R&D Systems, US), and ICAM-1/CD54 (dilution 10 μg/mL, available from R&D Systems, US).
(§3) Before primary staining, the cultured cells were permeabilized with 0.1% TRITON-X. After washing three times in PBS, the cells were incubated for 1 hr. at room temperature with 1:100 diluted ALEXA FLUOR 488 donkey anti-mouse IgG (available from Invitrogen, US). The nuclei of cultured cells were counter-stained and mounted with PROLONG GOLD antifade reagent with 4′-6-diamidine-2-phenylindole (DAPI) (available from Molecular Probes, US), examined by a fluorescent microscope (Leica, Switzerland), and photographed.
(§4) Immunohistochemistry was performed on the cultured human LECs or the fresh-frozen SLNs isolated from the breast cancer patients. In brief, the cultured LECs were fixed with 10% formalin in the phosphate-buffered saline solution (PBS) at room temperature. The cells were incubated for 4 hrs. at room temperature with primary polyclonal human antisera platelet-endothelial cell adhesion molecule (PECAM)-1 (dilution 1:100, available from BD Biosciences, US), lymphatic vessel endothelial hyaluronan receptor (LYVE)-1 (dilution 1:50, available from RELIATech, Germany), PROX-1 (dilution 1:50, available from AngioBio, US), podoplanin (dilution 1:50, available from AngioBio, US), vascular endothelium growth factor receptor 3 (VEGF R3) (dilution 1:50, available from Santa Cruz, US), E-selectin/CD62E (dilution 1:50, available from R&D systems, US), P-selectin/CD62P (dilution 1:50, available from R&D systems, US), vascular cell adhesion molecule (VCAM)-1/CD106 (dilution 1:50, available from R&D systems, US), and intercellular adhesion molecule (ICAM)-1/CD54 (dilution 1:50, available from R&D systems, US). Before the staining, permeabilization of the cultured cells with 0.1% TRITON-X was performed. Then, the cells were stained using the following antibodies: ALEXA FLUOR 488 chicken anti-rabbit IgG or ALEXA FLUOR 488 donkey anti-mouse IgG (available from Invitrogen, US). The nuclei of the cultured cells were counter-stained and mounted with ProLong Gold antifade reagent with 4′-6-diamidine-2-phenylindole (DAPI) (available from Molecular Probes, US). The cultured cells were examined by a fluorescent microscope (available from Leica, Germany) and photographed. […]

[5] = test system: P-selectin on human LECs; assay: Immunohistochemical expression of P-selectin on cultured human LECs; assay type: cell-based; conditions: 18 hrs.-stimulation with 10 ng/mL TNF-α or 100 ng/mL LPS
Procedure: as §1, §2
Before primary staining, the cultured cells were permeabilized with 0.1% TRITON-X. After washing three times in PBS, the cells were incubated for 1 hr. at room temperature with 1:100 diluted ALEXA FLUOR 488 donkey anti-mouse IgG (available from Invitrogen, US). […]

[6] = test system: VCAM-1 on human LECs; assay: Immunohistochemical expression of VCAM-1 on cultured human LECs; assay type: cell-based; conditions: 18 hrs.-stimulation with 10 ng/mL TNF-α or 100 ng/mL LPS
Procedure: as §1, §2, §3, §4

[7] = test system: F-actin in LECs derived from human collecting lymph vessel; assay: Staining of cytoskeletal protein F-actin in human LECs; assay type: cell-based; conditions: 10 ng/mL TNF-α; 1 ng/mL and 10 ng/mL IL-1β; 2 hrs. at 37° C.; vs negative control
Procedure: LECs derived from human collecting lymph vessel, which were transplanted into a culture system, were plated on glass slide, and repeatedly subcultured to confluence. Stimulating factors of 10 ng/mL of tumor necrosis factor-α (TNF-α) of Catalog No. T-0157 (available from SIGMA, US), 1 ng/mL and 10 ng/mL of interleukin-1β (IL-1β) of Catalog No. 200-01B (available from PeproTech, US) were respectively dissolved in EBM-2 containing 3% FBS of Catalog No. CC-3156 (available from Sankyo Junyaku Co., Ltd., Japan) and added onto the cells, and then the cells were incubated for 2 hrs. at 37° C. They were fixed with 3.7% formalin. They were washed with PBS solution, and then still stood in PBS solution containing 0.1% TRITON X-100 of Catalog No. X-100 (available from SIGMA, US) for 5 min. Additionally they were washed with PBS solution, and then phalloidin-FITC antibody of Catalog No. P-5282 (available from SIGMA, US) diluted 500 times with PBS solution containing 0.1% BSA was added thereto. They were still stood for 2 hrs. at room temperature. After they were washed with PBS solution, and mounted in MOBI GLOW MOUNTING MEDIUM. Also negative control was similarly prepared except for using no stimulating factor. […] The LECs of the negative control without the stimulating factor indicate obscure green fluorescence, and there were few expression of F-actin.

Row | Compound | in vitro attachment of carcinoma cells to human LECs [1] | expression of ICAM-1 on human LECs ([2]; 10^−8 or 10^−7M ATP for 48 hrs.) | inhibition of growth of prostate cancer cells in vitro [3] | expression of E-selectin on human LECs (positive controls) [4] | expression of P-selectin on human LECs (positive controls) [5] | expression of VCAM-1 on human LECs (positive controls) [6] | expression of F-actin (phalloidin-FITC fluorescence) [7] | expression of ICAM-1 on human LECs (positive controls) ([2]; 18 hrs.-stimulation with 10 ng/mL TNF-α or 100 ng/mL LPS)
1 | Nc1ncnc2c1ncn2[C@@H]1O[C@H](COP(=O)(O)OP(=O)(O)OP(=O)(O)O)[C@@H](O)[C@H]1O [ATP] | significant increase | marked expression | up to 90% | – | – | – | – | –
2 | TNF-α | – | – | – | marked expression | marked expression | marked expression | increase of expression of F-actin | marked expression
